According to US12194038B2, “Use of flibanserin in preparation of drug for treating androgenic alopecia” (SHANGHAI DIMAIHE BIOTECHNOLOGY CO., LTD., priority 2022, dated 2025):
“And” between values parts separate entries of the source, which are not always exact repeats. Equal entries are not always repeated. Where two headings read alike, the source gives them in different places.

Legend:
AGA model mice = test: Hair restoration in testosterone propionate-induced AGA model mice; assay type: in vivo; conditions: for Effective rate of animal hair restoration (effective rate of drug) / Hair restoration compared with the model group: AGA model mice, intragastric administration for 4 weeks
Experimental: Animal experiment-related reagents: testosterone propionate, Batch No. T818615. Soybean oil, Batch No. A23GS146219. 80 mg of testosterone propionate was dissolved in 40 mL of soybean oil to prepare a solution at 2 mg/mL. […] Flibanserin, Batch No. W1608745834, 0.32 mg of flibanserin was dissolved in 20 mL of physiological saline to prepare a solution at 1.6×10^−2 mg/mL
The experimental animals are male […] mice, non-inbred closed colony, weighing 18-22 g, aged 5 weeks, certificate number: No. 202207119, provided by the Institute of Comparative Medicine, Yangzhou University. In the laboratory, room temperature is 20° C.-22° C., the relative humidity is 40%-60%, ventilation is provided by a ventilation fan, and the natural light source is provided for 12 h/day. The mice were caged, with 7 mice per cage, and the cages were cleaned every three days.
Before the injection of testosterone propionate for modeling, pre-treatment was first performed, wherein the pre-treatment comprises: fixing the mice, shaving off the hairs on the back of the mice by an electric shaver, and unhairing vellus hairs using an unhairing cream. […] After successful modeling, the intragastric administration was performed for 4 weeks on the basis of the injection of the testosterone propionate solution. After the administration was completed, the effective rate (percentage of hair restoring mice to the total number of mice) of the drug was subjected to statistical analysis, and the ratio of the area of the hair growing part to the area of the unhairing part in mice was subjected to statistical analysis. The mouse hairs were taken from multiple points at different hair restoring parts on the back of the mice for length measurement and statistical analysis. The mice were sacrificed by cervical dislocation, and the back skin was taken, wherein a part of the back skin was frozen at −80° C. for extracting protein and performing a nuclear protein and cytoplasmic protein separation experiment to explore the inhibition of the drug on the nuclear localization of the androgen receptor dimer, and a part of the back skin was fixed with 4% paraformaldehyde (Cat. No.: AF030) for 48 h, and then subjected to tissue section and HE staining. […] Determination criteria: The unhairing area of the back of the mice after unhairing was measured, noted as A, the hair growing area of the back of the mice after the completion of the administration was measured, noted as B, and the mean value of the […] in each group was taken as the effective rate of animal hair restoration.

androgen receptor = target: T1, androgen receptor (Mus musculus, UniProt P19091); test: Nuclear protein and cytoplasmic protein separation experiment in primary hair follicle dermal papilla cells; assay type: cell-based; conditions: 48 h
T1 construct: Mouse primary hair follicle dermal papilla cells were extracted according to enzymatic digestion and cultured for 10 days; endogenous in cells; host or cells: mouse primary hair follicle dermal papilla cells
T1 sequence (P19091 1-899): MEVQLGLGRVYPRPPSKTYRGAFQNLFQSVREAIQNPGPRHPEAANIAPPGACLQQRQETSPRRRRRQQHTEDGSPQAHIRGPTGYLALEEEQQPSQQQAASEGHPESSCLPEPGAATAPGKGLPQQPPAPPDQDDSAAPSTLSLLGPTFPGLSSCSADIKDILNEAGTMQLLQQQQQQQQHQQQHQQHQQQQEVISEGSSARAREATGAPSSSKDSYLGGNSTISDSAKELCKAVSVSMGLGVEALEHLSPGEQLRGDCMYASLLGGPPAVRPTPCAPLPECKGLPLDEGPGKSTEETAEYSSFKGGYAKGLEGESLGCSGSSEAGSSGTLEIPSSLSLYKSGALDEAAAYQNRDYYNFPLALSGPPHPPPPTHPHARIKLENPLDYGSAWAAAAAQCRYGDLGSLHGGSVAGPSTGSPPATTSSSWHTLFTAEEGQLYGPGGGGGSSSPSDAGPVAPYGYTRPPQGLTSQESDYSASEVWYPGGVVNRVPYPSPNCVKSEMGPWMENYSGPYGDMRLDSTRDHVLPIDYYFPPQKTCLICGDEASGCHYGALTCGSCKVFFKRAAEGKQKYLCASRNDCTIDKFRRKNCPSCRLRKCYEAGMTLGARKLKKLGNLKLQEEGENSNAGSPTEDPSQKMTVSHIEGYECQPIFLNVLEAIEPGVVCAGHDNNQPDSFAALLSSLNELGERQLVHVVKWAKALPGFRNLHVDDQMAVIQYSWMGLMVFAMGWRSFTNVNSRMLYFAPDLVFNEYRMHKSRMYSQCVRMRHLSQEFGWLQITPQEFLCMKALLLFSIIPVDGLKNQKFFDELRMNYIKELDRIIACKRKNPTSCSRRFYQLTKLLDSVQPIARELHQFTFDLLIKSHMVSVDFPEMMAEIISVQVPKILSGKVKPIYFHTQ

Lncap cells [1] = test: Inhibition of proliferation of DHT-stimulated Lncap cells by flibanserin (MTT); assay type: cell-based, human; conditions: for OD value in administration group-OD value in control group: replicate values
Lncap cells [2] = conditions: 48 h
[3] = HE staining of tissue sections, compared with the model group
[4] = DHT 10^−8 mol/L + flibanserin 5 and 1 μmol/L (both doses), compared with finasteride group and DHT group

CC(C)(C)NC(=O)[C@H]1CC[C@H]2[C@@H]3CC[C@H]4NC(=O)C=C[C@]4(C)[C@H]3CC[C@]12C [Finasteride, finasteride]
Effective rate of animal hair restoration (effective rate of drug) (AGA model mice): 71.4% | Effective rate of animal hair restoration (effective rate of drug) (AGA model mice; listed as finasteride): 71.4% | Hair restoration compared with the model group (AGA model mice; listed as finasteride): restored to varying degrees

O=c1[nH]c2ccccc2n1CCN1CCN(c2cccc(C(F)(F)F)c2)CC1 [Flibanserin, flibanserin]
Effective rate of animal hair restoration (effective rate of drug) (AGA model mice): 85.7% | Effective rate of animal hair restoration (effective rate of drug) (AGA model mice; listed as flibanserin): 85.7% | Hair restoration compared with the model group (AGA model mice; listed as flibanserin): restored to varying degrees | Diameter of hair follicles (AGA model mice; [3]): increase | Number of hair follicles per unit area (AGA model mice; [3]): increase | Ratio of anagen to telogen (AGA model mice; [3]): increase | Ratio of epidermal thickness to dermal thickness (AGA model mice; [3]): increase | Hair length (AGA model mice; compared with the model group): increase | Total level of the androgen receptor (androgen receptor; DHT 10^−8 mol/L + finasteride 5 μmol/L or flibanserin 5 and 1 μmol/L, compared with DHT group): no significant difference | Level of the androgen receptor in the cytoplasm (androgen receptor; [4]): increased | Level of the androgen receptor in the nucleus (androgen receptor; [4]): decreased | inhibition at 0.001 µM (Lncap cells [1]; Homo sapiens, LNCaP, flibanserin 0.001 uM, 48 h, after modeling with 10^−9 M DHT, read-out: Mean proliferation inhibition rate): 11.9% | inhibition at 0.1 µM (Lncap cells [1]; Homo sapiens, LNCaP, flibanserin 0.1 uM, 48 h, after modeling with 10^−9 M DHT, read-out: Mean proliferation inhibition rate): 11% | inhibition at 1 µM (Lncap cells [1]; Homo sapiens, LNCaP, flibanserin 1 uM, 48 h, after modeling with 10^−9 M DHT, read-out: Mean proliferation inhibition rate): 20.1% | inhibition at 10 µM (Lncap cells [1]; Homo sapiens, LNCaP, flibanserin 10 uM, 48 h, after modeling with 10^−9 M DHT, read-out: Mean proliferation inhibition rate): 45.9% | inhibition at 50 µM (Lncap cells [1]; Homo sapiens, LNCaP, flibanserin 50 uM, 48 h, after modeling with 10^−9 M DHT, read-out: Mean proliferation inhibition rate): 82.4% | inhibition at 100 µM (Lncap cells [1]; Homo sapiens, LNCaP, flibanserin 100 uM, 48 h, after modeling with 10^−9 M DHT, read-out: Mean proliferation inhibition rate): 85.5% | OD value in administration group-OD value in control group (Lncap cells [1]; flibanserin 0.001 uM, 48 h): 0.72 and 0.981 and 0.8943 and 0.8405 and 0.9681 | OD value in administration group-OD value in control group (Lncap cells [1]; flibanserin 0.1 uM, 48 h): 0.7821 and 0.9153 and 0.9204 and 0.8399 and 0.9938 | OD value in administration group-OD value in control group (Lncap cells [1]; flibanserin 1 uM, 48 h): 0.7947 and 0.8164 and 0.702 and 0.8345 and 0.8472 | OD value in administration group-OD value in control group (Lncap cells [1]; flibanserin 10 uM, 48 h): 0.3592 and 0.6076 and 0.5562 and 0.5302 and 0.6538 | OD value in administration group-OD value in control group (Lncap cells [1]; flibanserin 50 uM, 48 h): 0.1738 and 0.1424 and 0.1556 and 0.1886 and 0.2218 | OD value in administration group-OD value in control group (Lncap cells [1]; flibanserin 100 uM, 48 h): 0.1345 and 0.1157 and 0.119 and 0.1751 and 0.1812 | Inhibition of the proliferation of Lncap cells (Lncap cells [1]; flibanserin at a low concentration, MTT): can inhibit

C[C@]12CCC(=O)C[C@@H]1CC[C@@H]1[C@@H]2CC[C@]2(C)[C@@H](O)CC[C@@H]12 [DHT, dihydrotestosterone]
Mean proliferation rate (Lncap cells [2]; DHT 10^−5 uM): −12.91% | Mean proliferation rate (Lncap cells [2]; DHT 10^−6 uM): 6.30% | Mean proliferation rate (Lncap cells [2]; DHT 10^−7 uM): 7.77% | Mean proliferation rate (Lncap cells [2]; DHT 10^−8 uM): 9.47% | Mean proliferation rate (Lncap cells [2]; DHT 10^−9 uM): 10.01% | Mean proliferation rate (Lncap cells [2]; DHT 10^−10 uM): 2.79%
